# Source: the supplement of paper PMC10307832
# What was measured:
# Assay in all cases: relative viability (nuclei count vs DMSO), 5 days (fraction); higher = more cells survive
# NCI-H1666 = system: NCI-H1666
# Summary of the method: (§1)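 The day after seeding in 1536-well plates, lung cancer cell lines were treated by pin tool with a single drug, or with a fixed anchor-drug dose together with five library-drug doses (not always all listed) in √10 steps. After 5 days, a combined fix-and-stain solution (final 0.05% Triton X-100, 1% formaldehyde, 1 ug/ml Hoechst) was added. Nuclei counted on 4× images gave relative viability as treated counts over vehicle counts, reported as the median of duplicate plates.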
# NCI-H2087 = system: NCI-H2087
# Summary of the method: as §1
# NCI-H441 = system: NCI-H441
# Summary of the method: as §1
# NCI-H1355 = system: NCI-H1355
# Summary of the method: as §1
# NCI-H2405 = system: NCI-H2405
# Summary of the method: as §1
# PC-14 = system: PC-14
# Summary of the method: as §1
# NCI-H2023 = system: NCI-H2023
# Summary of the method: as §1
# LK-2 = system: LK-2
# Summary of the method: as §1
# NCI-H2126 = system: NCI-H2126
# Summary of the method: as §1
# HOP-62 = system: HOP-62
# Summary of the method: as §1
# SW 1573 = system: SW 1573
# Summary of the method: as §1
# NCI-H322M = system: NCI-H322M
# Summary of the method: as §1
# COR-L23 = system: COR-L23
# Summary of the method: as §1
# ChaGo-K-1 = system: ChaGo-K-1
# Summary of the method: as §1
# LCLC-103H = system: LCLC-103H
# Summary of the method: as §1
# NCI-H460 = system: NCI-H460
# Summary of the method: as §1
# NCI-H1975 = system: NCI-H1975
# Summary of the method: as §1
# HCC-44 = system: HCC-44
# Summary of the method: as §1
# EPLC-272H = system: EPLC-272H
# Summary of the method: as §1
# NCI-H2228 = system: NCI-H2228
# Summary of the method: as §1
# NCI-H596 = system: NCI-H596
# Summary of the method: as §1
# NCI-H3122 = system: NCI-H3122
# Summary of the method: as §1
# SW 900 = system: SW 900
# Summary of the method: as §1
# EMC-BAC-2 = system: EMC-BAC-2
# Summary of the method: as §1
# NCI-H1944 = system: NCI-H1944
# Summary of the method: as §1
compound,measurement,setting,value
Nc1cccc2c1CN(C1CCC(=O)NC1=O)C2=O (stereo unspecified) [Lenalidomide] + CC(=O)Nc1cccc(-n2c(=O)n(C3CC3)c(=O)c3c(Nc4ccc(I)cc4F)n(C)c(=O)c(C)c32)c1 [Trametinib] (partner 0.02 µM),relative viability,NCI-H1666; first compound 0.253 µM,0.859
same,relative viability,NCI-H1666; first compound 0.8 µM,0.765
same,relative viability,NCI-H1666; first compound 2.53 µM,0.93
same,relative viability,NCI-H1666; first compound 8 µM,0.784
same,relative viability,NCI-H2087; first compound 0.253 µM,0.191
same,relative viability,NCI-H2087; first compound 2.53 µM,0.28
same,relative viability,NCI-H2087; first compound 8 µM,0.186
same,relative viability,NCI-H441; first compound 0.253 µM,0.484
same,relative viability,NCI-H441; first compound 0.8 µM,0.258
same,relative viability,NCI-H441; first compound 2.53 µM,0.623
same,relative viability,NCI-H441; first compound 8 µM,0.387
same,relative viability,NCI-H1355; first compound 0.253 µM,0.431
same,relative viability,NCI-H1355; first compound 0.8 µM,0.316
same,relative viability,NCI-H1355; first compound 2.53 µM,0.402
same,relative viability,NCI-H1355; first compound 8 µM,0.267
same,relative viability,NCI-H2405; first compound 0.253 µM,0.648
same,relative viability,NCI-H2405; first compound 0.8 µM,0.657
same,relative viability,NCI-H2405; first compound 2.53 µM,0.654
same,relative viability,NCI-H2405; first compound 8 µM,0.546
same,relative viability,PC-14; first compound 0.253 µM,0.839
same,relative viability,PC-14; first compound 0.8 µM,0.722
same,relative viability,PC-14; first compound 2.53 µM,0.981
same,relative viability,PC-14; first compound 8 µM,0.779
same,relative viability,NCI-H2023; first compound 0.253 µM,0.554
same,relative viability,NCI-H2023; first compound 0.8 µM,0.584
same,relative viability,NCI-H2023; first compound 2.53 µM,0.444
same,relative viability,NCI-H2023; first compound 8 µM,0.504
same,relative viability,LK-2; first compound 0.253 µM,0.772
same,relative viability,LK-2; first compound 0.8 µM,0.747
same,relative viability,LK-2; first compound 2.53 µM,0.746
same,relative viability,LK-2; first compound 8 µM,0.717
same,relative viability,NCI-H2126; first compound 0.253 µM,0.572
same,relative viability,NCI-H2126; first compound 0.8 µM,0.526
same,relative viability,NCI-H2126; first compound 2.53 µM,0.597
same,relative viability,NCI-H2126; first compound 8 µM,0.462
same,relative viability,HOP-62; first compound 0.253 µM,0.34
same,relative viability,HOP-62; first compound 0.8 µM,0.338
same,relative viability,HOP-62; first compound 2.53 µM,0.4
same,relative viability,HOP-62; first compound 8 µM,0.363
same,relative viability,SW 1573; first compound 0.253 µM,0.583
same,relative viability,SW 1573; first compound 0.8 µM,0.67
same,relative viability,SW 1573; first compound 2.53 µM,0.583
same,relative viability,SW 1573; first compound 8 µM,0.596
same,relative viability,NCI-H322M; first compound 0.253 µM,0.507
same,relative viability,NCI-H322M; first compound 0.8 µM,0.527
same,relative viability,NCI-H322M; first compound 2.53 µM,0.508
same,relative viability,NCI-H322M; first compound 8 µM,0.511
same,relative viability,COR-L23; first compound 0.253 µM,0.613
same,relative viability,COR-L23; first compound 0.8 µM,0.677
same,relative viability,COR-L23; first compound 2.53 µM,0.678
same,relative viability,COR-L23; first compound 8 µM,0.508
same,relative viability,ChaGo-K-1; first compound 0.253 µM,0.925
same,relative viability,ChaGo-K-1; first compound 0.8 µM,0.897
same,relative viability,ChaGo-K-1; first compound 2.53 µM,1.02
same,relative viability,ChaGo-K-1; first compound 8 µM,0.904
same,relative viability,LCLC-103H; first compound 0.253 µM,0.687
same,relative viability,LCLC-103H; first compound 0.8 µM,0.623
same,relative viability,LCLC-103H; first compound 2.53 µM,0.656
same,relative viability,LCLC-103H; first compound 8 µM,0.617
same,relative viability,NCI-H460; first compound 0.253 µM,0.0785
same,relative viability,NCI-H460; first compound 0.8 µM,0.13
same,relative viability,NCI-H460; first compound 2.53 µM,0.127
same,relative viability,NCI-H460; first compound 8 µM,0.19
same,relative viability,NCI-H1975; first compound 0.253 µM,0.388
same,relative viability,NCI-H1975; first compound 0.8 µM,0.201
same,relative viability,NCI-H1975; first compound 2.53 µM,0.36
same,relative viability,NCI-H1975; first compound 8 µM,0.234
same,relative viability,HCC-44; first compound 0.253 µM,1.08
same,relative viability,HCC-44; first compound 0.8 µM,0.829
same,relative viability,HCC-44; first compound 2.53 µM,1.11
same,relative viability,HCC-44; first compound 8 µM,1.05
same,relative viability,EPLC-272H; first compound 0.253 µM,0.284
same,relative viability,EPLC-272H; first compound 0.8 µM,0.272
same,relative viability,EPLC-272H; first compound 2.53 µM,0.34
same,relative viability,EPLC-272H; first compound 8 µM,0.313
same,relative viability,NCI-H2228; first compound 0.253 µM,0.629
same,relative viability,NCI-H2228; first compound 0.8 µM,0.315
same,relative viability,NCI-H2228; first compound 2.53 µM,0.695
same,relative viability,NCI-H2228; first compound 8 µM,0.363
same,relative viability,NCI-H596; first compound 0.253 µM,0.73
same,relative viability,NCI-H596; first compound 0.8 µM,0.83
same,relative viability,NCI-H596; first compound 2.53 µM,0.938
same,relative viability,NCI-H596; first compound 8 µM,0.766
same,relative viability,NCI-H3122; first compound 0.253 µM,0.234
same,relative viability,NCI-H3122; first compound 0.8 µM,0.246
same,relative viability,NCI-H3122; first compound 2.53 µM,0.253
same,relative viability,NCI-H3122; first compound 8 µM,0.205
same,relative viability,SW 900; first compound 2.53 µM,1
same,relative viability,SW 900; first compound 8 µM,0.76
same,relative viability,EMC-BAC-2; first compound 0.253 µM,0.888
same,relative viability,EMC-BAC-2; first compound 0.8 µM,0.848
same,relative viability,EMC-BAC-2; first compound 2.53 µM,0.922
same,relative viability,EMC-BAC-2; first compound 8 µM,0.747
same,relative viability,NCI-H1944; first compound 0.253 µM,0.385
same,relative viability,NCI-H1944; first compound 2.53 µM,0.427
same,relative viability,NCI-H1944; first compound 8 µM,0.395
